Experimental findings from PubChem BioAssay AID651642 (Sanford-Burnham Center for Chemical Genomics, 2012) are described below.

Assay [1] deals with HL-1. Nature of the assay: cardiomyocyte survival under oxidative or metabolic stress – cell-based, panel, H9c2 and HL-1, H2O2, 2-deoxyglucose, ATP luminescence, SAR follow-up (AID 651642).
For assay [2], the system named is H9c2. The assay is described as above.
The mark [3] stands for this setting: H9c2/HL-1 cardiomyocyte 2-deoxyglucose damage, run 1, with 2-deoxyglucose.
The mark [4] stands for this setting: H9c2/HL-1 cardiomyocyte 2-deoxyglucose damage, run 2, with 2-deoxyglucose.
The mark [5] stands for this setting: H9c2/HL-1 cardiomyocyte 2-deoxyglucose damage, run 3, with 2-deoxyglucose.
The mark [6] stands for this setting: H9c2/HL-1 cardiomyocyte 2-deoxyglucose damage, run 4, with 2-deoxyglucose.
Setting [7] is: H9c2/HL-1 cardiomyocyte H2O2 oxidative damage, run 1, with H2O2.
[8] abbreviates: H9c2/HL-1 cardiomyocyte H2O2 oxidative damage, run 2, with H2O2.
Where [9] appears, read: H9c2/HL-1 cardiomyocyte H2O2 oxidative damage, run 3, with H2O2.
Where [10] appears, read: H9c2/HL-1 cardiomyocyte H2O2 oxidative damage, run 4, with H2O2.
The mark [11] stands for this setting: H9c2/HL-1 cardiomyocyte 2-deoxyglucose damage, mean of runs, with 2-deoxyglucose, mean IC50 across panel.
Where [12] appears, read: H9c2/HL-1 cardiomyocyte H2O2 oxidative damage, mean of runs, with H2O2, mean IC50 across panel.

The term IC50 denotes the midpoint of a concentration-inhibition curve.

Regarding `COc1cc(-c2cc(C(=O)Nc3cccc(C#N)c3)c3ccccc3n2)cc(OC)c1OC`, the concentration for half-maximal inhibition (IC50) in assay [1] (setting [3]) is 5.37 µM; in assay [1] (setting [4]), 7.28 µM; in assay [1] (setting [5]), more than 79 µM; in assay [1] (setting [6]), more than 79 µM; in assay [1] (setting [7]), more than 79 µM; in assay [1] (setting [8]), more than 79 µM. The IC50 was 6.09 µM in assay [1] (setting [9]); 11.1 µM in assay [1] (setting [10]); more than 79 µM in assay [2] (setting [11]); more than 79 µM in assay [2] (setting [3]); more than 79 µM in assay [2] (setting [4]); more than 79 µM in assay [2] (setting [5]). Besides, the IC50 in assay [2] (setting [6]) is more than 79 µM; in assay [2] (setting [7]), 7.93 µM; in assay [2] (setting [8]) it was 8.58 µM; in assay [2] (setting [9]) it was more than 79 µM; in assay [2] (setting [10]), 6.2 µM.
Consider `COc1ccc2nc(-c3cc(OC)c(OC)c(OC)c3)cc(C(=O)Nc3cccc(C(C)=O)c3)c2c1`, for which the IC50 is 6.04 µM in assay [1] (setting [3]); 6.84 µM in assay [1] (setting [4]); more than 79 µM in assay [1] (setting [5]); more than 79 µM in assay [1] (setting [6]); more than 79 µM in assay [1] (setting [7]); more than 79 µM in assay [1] (setting [8]). Moreover, the 50% inhibitory concentration (IC50) in assay [1] (setting [9]) is 3.8 µM; in assay [1] (setting [10]), 8.57 µM; in assay [2] (setting [3]), more than 79 µM; in assay [2] (setting [4]), 27.9 µM; in assay [2] (setting [5]) it was more than 79 µM; in assay [2] (setting [6]), more than 79 µM. The IC50 is 5.31 µM in assay [2] (setting [7]), 8.25 µM in assay [2] (setting [8]), more than 79 µM in assay [2] (setting [9]) and 2.94 µM in assay [2] (setting [10]).
With `CCOC(=O)c1cccc(NC(=O)c2cc(-c3cc(OC)c(OC)c(OC)c3)nc3ccccc23)c1`, the IC50 is 3.23 µM in assay [1] (setting [3]); 3.46 µM in assay [1] (setting [4]); more than 79 µM in assay [1] (setting [5]); more than 79 µM in assay [1] (setting [6]); 4.62 µM in assay [1] (setting [12]); 3.4 µM in assay [1] (setting [7]). Further, the IC50 in assay [1] (setting [8]) is 4.59 µM; in assay [1] (setting [9]) it was 3.78 µM; in assay [1] (setting [10]), 6.72 µM; in assay [2] (setting [11]), more than 79 µM; in assay [2] (setting [3]), more than 79 µM; in assay [2] (setting [4]), more than 79 µM. Also, the concentration for half-maximal inhibition (IC50) is more than 79 µM in assay [2] (setting [5]); more than 79 µM in assay [2] (setting [6]); 3.9 µM in assay [2] (setting [7]); 4.44 µM in assay [2] (setting [8]); more than 79 µM in assay [2] (setting [9]); more than 79 µM in assay [2] (setting [10]).
With `COc1cc(-c2cc(C(=O)NCC(=O)Nc3cccc(C(C)=O)c3)c3cc(F)ccc3n2)cc(OC)c1OC`, the IC50 was determined as 6.37 µM in assay [1] (setting [11]); 3.22 µM in assay [1] (setting [3]); 3.87 µM in assay [1] (setting [4]); 8.99 µM in assay [1] (setting [5]); 9.39 µM in assay [1] (setting [6]); 6.46 µM in assay [1] (setting [12]). For the same compound, the IC50 stood at 5.91 µM in assay [1] (setting [7]); 5.98 µM in assay [1] (setting [8]); 5.45 µM in assay [1] (setting [9]); 8.51 µM in assay [1] (setting [10]); 6.15 µM in assay [2] (setting [11]); 7.04 µM in assay [2] (setting [3]). In addition, the concentration for half-maximal inhibition (IC50) in assay [2] (setting [4]) was 8.51 µM; in assay [2] (setting [5]), 4.17 µM; in assay [2] (setting [6]), 4.87 µM; in assay [2] (setting [12]), 1.29 µM; in assay [2] (setting [7]) it was 1.53 µM; in assay [2] (setting [8]), 1.98 µM. The results for the concentration for half-maximal inhibition (IC50) in assay [2] (setting [9]) and in assay [2] (setting [10]) were 0.789 µM and 0.865 µM, respectively.
Take `COc1ccc2c(c1OC)C(=O)N1c3ccccc3C(=O)N(Cc3cccc(F)c3)C21` (centres undefined): the IC50 was 6.54 µM in assay [1] (setting [11]); 3.49 µM in assay [1] (setting [3]); 4.29 µM in assay [1] (setting [4]); 9.07 µM in assay [1] (setting [5]); 9.32 µM in assay [1] (setting [6]); more than 79 µM in assay [1] (setting [12]). Moreover, the IC50 in assay [1] (setting [7]), in assay [1] (setting [8]), in assay [1] (setting [9]), in assay [1] (setting [10]), in assay [2] (setting [11]) and in assay [2] (setting [3]) was more than 79 µM in each case. Further, the half-maximal inhibitory concentration (IC50) was more than 79 µM in assay [2] (setting [4]); more than 79 µM in assay [2] (setting [5]); more than 79 µM in assay [2] (setting [6]); 1.15 µM in assay [2] (setting [7]); 1.56 µM in assay [2] (setting [8]); more than 79 µM in assay [2] (setting [9]). In assay [2] (setting [10]), this compound gave an IC50 of more than 79 µM.
On to `COc1cc(-c2cc(C(=O)Nc3cccc(C(C)=O)c3)c3cc(C)ccc3n2)cc(OC)c1OC`, for which the half-inhibitory concentration (IC50) in assay [1] (setting [3]) was 4.82 µM; in assay [1] (setting [4]), 5.03 µM; in assay [1] (setting [5]) it was more than 79 µM; in assay [1] (setting [6]) it was more than 79 µM; in assay [1] (setting [12]), 4.11 µM; in assay [1] (setting [7]) it was 4.85 µM. For the same compound, the concentration for half-maximal inhibition (IC50) in assay [1] (setting [8]) was 5.7 µM; in assay [1] (setting [9]), 2.78 µM; in assay [1] (setting [10]) it was 3.12 µM; in assay [2] (setting [11]), more than 79 µM; in assay [2] (setting [3]), more than 79 µM; in assay [2] (setting [4]), more than 79 µM. Further, the IC50 in assay [2] (setting [5]) was more than 79 µM; in assay [2] (setting [6]), more than 79 µM; in assay [2] (setting [12]), 5.05 µM; in assay [2] (setting [7]) it was 4.03 µM; in assay [2] (setting [8]) it was 8.34 µM; in assay [2] (setting [9]), 3.55 µM. In addition, the IC50 in assay [2] (setting [10]) came to 4.29 µM.
